Data from a melting point compilation (Tetko et al.; mined from patent text by program, amines drawn as free bases though some values may be those of a salt).

| SMILES | melting point |
| --- | --- |
| CCCc1nc(C)n2cnnc2c1Cc1ccc(-c2ccccc2-c2nnn[nH]2)cc1 | 182 to 184 °C |
| O[C@H]1CC[C@H](n2cnc(-c3ccc(F)cc3)c2-c2ccnc(Oc3ccccc3)n2)CC1 | 212 to 215 °C |
| O=C1CN(C(=O)c2ccco2)c2ccccc2N1 | 229 to 230 °C |
| COc1cccc(C(=O)P2(=O)Oc3ccccc3-c3ccccc32)c1 (centres undefined) | 116 to 118 °C |
| CC(=O)Nc1c(C(=O)c2ccccc2)[nH]c2ccc(Cl)cc12 | 200 to 201 °C |
| CC(=O)c1ccc(-c2ccc(N(c3ccccc3)c3ccccc3)cc2)cc1 | 97 to 98 °C |
| c1cc(-c2cc3nccnc3[nH]2)ccn1 | 324 to 326 °C |
| Cc1cc(C#Cc2cn(-c3ncccn3)c(C)n2)ccn1 | 164 to 165 °C |
| O=C1OC2(CCN(C(=O)Nc3ncc(-c4ccccc4)cn3)CC2)c2cccc(F)c21 | 247 to 249 °C |
| O=C(OC1CCN(Cc2ccccc2)CC1)c1ccc(I)cc1 | 77 to 78 °C |
| CC1CN(Cc2ccccc2)c2c3c(nc4cccc(c24)O1)CCCC3 (centres undefined) | 152 to 153 °C |
| CCCN(C1=C(O)CC(C2CCCC2)(C2CCCC2)OC1=O)c1cccc(N)c1 | 173 to 175 °C |
| CC1CC(=O)NN=C1c1ccc(-n2cnc3c2CCCC3)cc1 (centres undefined) | 199 to 200 °C |
| Fc1ccc2c(C3CCN(CCN4CCOCC4)CC3)noc2c1 | 131 to 132 °C |
| O=C1CNc2c(Cl)cccc2N1 | 191 to 193 °C |
| CC(=O)Nc1cc(Cl)c(Br)c(Cl)c1 | 224 °C |

| SMILES | melting point |
| --- | --- |
| Nc1ccc2snc(-c3sccc3Cl)c2c1 | 128 to 132 °C |
| Cc1c(C)c2c(c(C)c1N)CC(C)(CN1CCC(C(=O)NCC(c3ccccc3)c3ccccc3)CC1)O2 (centres undefined) | 168 to 170 °C |
| CCOC(=O)c1cn(-c2ccccc2)nc1OCc1ccc(OCc2nc(-c3ccccc3)oc2C)c(OC)c1 | 160 to 161 °C |
| O=C(O)CN(C(=O)OCc1ccccc1)c1ccc(O)cc1 | 196 to 198 °C |
| Cc1ccccc1C(=O)Nc1ncc([N+](=O)[O-])s1 | 228 to 230 °C |
| CC(=O)OCC(=O)NCc1cccc(-c2csc(N=C(N)NC(=O)COC(C)=O)n2)n1 | 148 to 151 °C |
| C=CCOC1CC2C3CCC4=CC(=O)CCC4(C)C3(F)C(O)CC2(C)C1(O)C(=O)CCl (centres undefined) | 224 to 225 °C |
| CCOC(=O)C(=O)Nc1cccc(NC(=O)C(=O)OCC)c1Cl | 162 °C |
| Cc1ccc(S(=O)(=O)c2ncccc2NC(=O)N[C@@H](Cc2ccc(NC(=O)c3c(Cl)cccc3Cl)cc2)C(=O)O)cc1 | 180 °C |
| Cn1ccnc1NC(=O)c1c(C(F)(F)F)nc2c(C(F)(F)F)cccc2c1O | 259 °C |
| C=CCN(c1ccccc1)c1ncc(C(C)C(=O)O)s1 (centres undefined) | 134 to 135 °C |
| Fc1ccc(-c2nc(SCSc3nc(-c4ccc(F)cc4)c(-c4ccc(F)cc4)[nH]3)[nH]c2-c2ccc(F)cc2)cc1 | 265 °C |
| FC(F)(F)c1nc(-c2ccccc2)c(-c2ccccc2)s1 | 94 to 97 °C |
| COc1ccc(-c2csc(Nc3ccc4ccccc4c3)n2)cc1OC | 221 to 224 °C |
| CCc1cn(C2CCC(CNC(=O)Cc3c(Cl)cccc3Cl)O2)c(=O)[nH]c1=O (centres undefined) | 237 to 238 °C |
| COc1ccccc1NC(=O)Nc1nc(Nc2ccccc2-c2ccccc2)nc(N2Cc3ccccc3CC2C(=O)O)n1 (centres undefined) | 138 to 145 °C |

The remaining lines, values ahead:

| melting point | SMILES |
| --- | --- |
| 136 to 138 °C | COc1ccc(COc2cccnc2NC(=S)Nc2ccc(Cl)cc2)cc1 |
| 286 to 291 °C | CC1(C)Cc2c(ccc3c2C(c2cccc(-c4ccc(C(=O)O)cc4)c2)=NCC3(C)C)O1 |
| 83 to 88 °C | COc1cc(C(=O)OCCCCBr)ccc1O |
| 219 to 220 °C | COc1cc(C(=O)O)ccc1OCc1nc(-c2ccccc2)oc1C |
| 171 °C | CC(C(=O)N1CCCC(C)(C)C1)N(C(=O)CN1C(=O)c2ccccc2C1=O)c1ccccc1 (racemic) |
| 188 to 190 °C | C#CCOC(=O)c1cccnc1C1=NC(C)(C(C)C)C(=O)N1 (centres undefined) |
| 154 to 156 °C | CCc1cccc2c3c([nH]c12)C1(CC(=O)O)CC1CC3 (centres undefined) |
| 117 to 119 °C | O=C(NCc1cccc2ccccc12)NC1CCN(S(=O)(=O)c2ccccc2C(F)(F)F)C1 (centres undefined) |
| 259 to 261 °C | COc1cc(C(=O)O)ccc1Cc1csc2ccc(NC(=O)OC3CCCC3)cc12 |
| 72 to 73 °C | COC(=O)c1cc(Cl)c(OC)c(Cl)c1N |
| 283 to 285 °C | CC(C)(C)c1ccc(CCN2C(=O)COc3ccc(C=C4SC(=S)NC4=O)cc32)cc1 |
| 109 to 111 °C | CC(Oc1ccc(F)cc1F)(C(=O)Nc1nc(CC(=O)O)c(Cl)s1)c1ccc(S(C)(=O)=O)cc1 (centres undefined) |
| 122 to 126 °C | COC(=O)c1ccc(C)c(-c2cc3cnc(NC4CCOCC4)nc3n(C)c2=O)c1 |
| 106 to 108 °C | COC(=O)N[C@H](C(=O)O)C(C)(C)C |
| 121 to 122 °C | COc1cc(C(C)(C)C)c(O)c(C(=O)Nc2ccc(S(=O)(=O)C(F)(F)F)cc2Cl)c1C |
| 162 to 163 °C | CC(=O)Oc1ccc(C(=O)O)cc1C(=O)c1ccccc1 |
| 174 to 178 °C | CC(C)(C)OC(=O)N1CCC(c2nc3cc(-c4ccc(S(C)(=O)=O)c(F)c4)ccc3o2)CC1 |
| 171 to 173 °C | COc1ccc2c(c1)c(N1CCN(C#N)CC1)nn2S(=O)(=O)c1ccccc1 |
| 127 to 128 °C | Cc1ccc2nc(C)c(CCN3CCN(c4cccc(Cl)c4)CC3)c(=O)n2c1 |

| melting point | SMILES |
| --- | --- |
| 156 to 157 °C | CCOC(=O)c1c(NC)c(N=O)c2ccccn12 |
| 93 to 95 °C | Cc1cn(C2CC(O[Si](C)(C)C(C)(C)C)C(CO)O2)c(=O)[nH]c1=O (centres undefined) |
| 74.3 °C | C[C@@H]1CCN(C(=O)CC#N)C[C@@H]1N(C)c1ncnc2sccc12 |
| 114 to 116 °C | C=C(C)C(=O)OCCCOc1cc(-n2nc3ccc(OC)cc3n2)c(O)c(C(C)(C)C)c1 |
| 168 to 173 °C | COC(=O)[C@H]1CC[C@H](NC(=O)c2cc(-c3ccc(C(=N)N)cc3)nn(Cc3ccccc3)c2=O)CC1 |
| 130 °C | CCOC(=O)c1cn2c(nc1=O)CCC2C (centres undefined) |
| 64 to 68 °C | CNCCOC(=O)[C@@H](C)c1ccc2cc(OC)ccc2c1 |
| 68 °C | CCOC(=O)c1c(C(F)(F)F)nc2c(C(F)(F)F)cccc2c1O |
| 199 °C | CCCOC(=O)C1=C(N)NC(C)=C(C(=O)OC(C)C)C1c1cccc([N+](=O)[O-])c1 (centres undefined) |
| 129 to 131 °C | CC(C)(C)c1ccc(/C=N/OCCOc2ccc(C(=O)O)c(OC(=O)c3ccccc3)c2)cc1 |
| 122 to 124 °C | COc1ccc(C(O)(c2ccccc2)c2ccc(OC)cc2)cc1 |
| 146 to 147 °C | C=CCOc1c(N)cc2c(C)cc(=O)oc2c1C |
| 131 to 133 °C | CC(C)c1cc(C=CC(=O)Nc2ccc(C(=O)O)cc2)oc1C(C)C |
| 100 to 101 °C | COc1ccc(C(=NOCc2ccccc2)c2cccc([N+](=O)[O-])c2)cc1 |
| 191 to 192 °C | CCOC(=O)c1sc(C2=C(C)NC(C)=C(C(=O)OC)C2c2ccccc2[N+](=O)[O-])nc1C (centres undefined) |
| 262 to 264 °C | Cc1cccc2ncn(C3CCC(=O)NC3=O)c(=O)c12 (centres undefined) |
| 250 to 252 °C | O=C(Nc1ccccc1)OCC1CSC2=C(O1)c1ccccc1C(=O)C2=O (centres undefined) |
| 76 °C | COc1ccc2c(c1)C(=O)C(=CCC(=O)OC(C)(C)C)CC2 |
